Results as given in the NIST ThermoML archive (doi:10.1016/j.jct.2012.10.008).
± gives the expanded uncertainty stated by the source.

Assays:
[1] = Liquid; for viscosity: Falling or rolling sphere viscometry; for mass density: Vibrating tube method
[2] = refractive index (Na D-line) (dimensionless); conditions: 298.15 K; 101.33 kPa; Liquid; Standard Abbe refractometry
[3] = xn = mol fraction of the nth substance listed; conditions: 101 kPa, Liquid, x2 = 0; for viscosity: Falling or rolling sphere viscometry; for mass density: Vibrating tube method

Row | viscosity ([1]; 293.15 K, 101.33 kPa) | mass density ([1]; 293.15 K, 101.33 kPa) | viscosity ([1]; 298.15 K, 101.33 kPa) | mass density ([1]; 298.15 K, 101.33 kPa) | viscosity ([1]; 303.15 K, 101.33 kPa) | mass density ([1]; 303.15 K, 101.33 kPa) | viscosity ([1]; 308.15 K, 101.33 kPa) | mass density ([1]; 308.15 K, 101.33 kPa) | viscosity ([1]; 313.15 K, 101.33 kPa) | mass density ([1]; 313.15 K, 101.33 kPa) | refractive index [2] | viscosity ([3]; 293.15 K) | mass density ([3]; 293.15 K) | viscosity ([3]; 298.15 K) | mass density ([3]; 298.15 K) | viscosity ([3]; 303.15 K) | mass density ([3]; 303.15 K) | viscosity ([3]; 308.15 K) | mass density ([3]; 308.15 K) | viscosity ([3]; 313.15 K) | Structure (SMILES) | further results
1 | 1.218 ± 0.01 mPa·s | 789.5 ± 0.15 kg/m3 | 1.134 ± 0.009 mPa·s | 785.39 ± 0.15 kg/m3 | 1.015 ± 0.008 mPa·s | 780.69 ± 0.15 kg/m3 | 0.91 ± 0.008 mPa·s | 776.35 ± 0.15 kg/m3 | 0.836 ± 0.007 mPa·s | 772.11 ± 0.15 kg/m3 | 1.3594 ± 0.0004 | – | – | – | – | – | – | – | – | – | CCO [ethanol] | viscosity ([1]; 303.15 K, 101 kPa): 1.01 ± 0.008 mPa·s; viscosity ([1]; 308.15 K, 101 kPa): 0.907 ± 0.008 mPa·s
2 | – | – | – | – | – | – | – | – | – | – | – | 1.218 ± 0.01 mPa·s | 789.5 ± 0.15 kg/m3 | 1.134 ± 0.009 mPa·s | 785.39 ± 0.15 kg/m3 | 1.01 ± 0.008 mPa·s | 780.69 ± 0.15 kg/m3 | 0.907 ± 0.008 mPa·s | 776.35 ± 0.15 kg/m3 | 0.836 ± 0.007 mPa·s | CCO [ethanol] + CCCC[NH3+].O=[N+]([O-])[O-] | mass density ([3]; 313.15 K): 772.11 ± 0.15 kg/m3
3 | 0.588 ± 0.006 mPa·s | 791.23 ± 0.15 kg/m3 | 0.552 ± 0.006 mPa·s | 786.54 ± 0.15 kg/m3 | 0.516 ± 0.006 mPa·s | 781.81 ± 0.15 kg/m3 | 0.486 ± 0.005 mPa·s | 777.05 ± 0.15 kg/m3 | 0.461 ± 0.005 mPa·s | 772.25 ± 0.15 kg/m3 | 1.3264 ± 0.0004 | – | – | – | – | – | – | – | – | – | CO [methanol] | –
4 | – | – | – | – | – | – | – | – | – | – | – | 0.588 ± 0.006 mPa·s | 791.23 ± 0.15 kg/m3 | 0.552 ± 0.006 mPa·s | 786.54 ± 0.15 kg/m3 | 0.516 ± 0.006 mPa·s | 781.81 ± 0.15 kg/m3 | 0.486 ± 0.005 mPa·s | 777.05 ± 0.15 kg/m3 | 0.461 ± 0.005 mPa·s | CO [methanol] + CCCC[NH3+].O=[N+]([O-])[O-] | mass density ([3]; 313.15 K): 772.25 ± 0.15 kg/m3

Further lines, the molecule ahead of its results:

Row | Structure (SMILES) | viscosity ([1]; 293.15 K, 101.33 kPa) | mass density ([1]; 293.15 K, 101.33 kPa) | viscosity ([1]; 298.15 K, 101.33 kPa) | mass density ([1]; 298.15 K, 101.33 kPa) | viscosity ([1]; 303.15 K, 101.33 kPa) | mass density ([1]; 303.15 K, 101.33 kPa) | viscosity ([1]; 308.15 K, 101.33 kPa) | mass density ([1]; 308.15 K, 101.33 kPa) | viscosity ([1]; 313.15 K, 101.33 kPa) | mass density ([1]; 313.15 K, 101.33 kPa) | refractive index [2] | viscosity ([3]; 293.15 K) | mass density ([3]; 293.15 K) | viscosity ([3]; 298.15 K) | mass density ([3]; 298.15 K) | viscosity ([3]; 303.15 K) | mass density ([3]; 303.15 K) | viscosity ([3]; 308.15 K) | mass density ([3]; 308.15 K) | viscosity ([3]; 313.15 K) | further results
5 | CCCCO [butan-1-ol] | 2.942 ± 0.023 mPa·s | 809.76 ± 0.14 kg/m3 | 2.572 ± 0.02 mPa·s | 805.96 ± 0.14 kg/m3 | 2.265 ± 0.018 mPa·s | 802.11 ± 0.15 kg/m3 | 2.002 ± 0.016 mPa·s | 798.18 ± 0.15 kg/m3 | 1.787 ± 0.014 mPa·s | 794.39 ± 0.15 kg/m3 | 1.3972 ± 0.0004 | – | – | – | – | – | – | – | – | – | mass density ([1]; 298.15 K, 101 kPa): 805.94 ± 0.14 kg/m3
6 | CCCCO [butan-1-ol] + CCCC[NH3+].O=[N+]([O-])[O-] | – | – | – | – | – | – | – | – | – | – | – | 2.942 ± 0.023 mPa·s | 809.76 ± 0.14 kg/m3 | 2.572 ± 0.02 mPa·s | 805.94 ± 0.14 kg/m3 | 2.265 ± 0.018 mPa·s | 802.11 ± 0.14 kg/m3 | 2.002 ± 0.016 mPa·s | 798.18 ± 0.15 kg/m3 | 1.787 ± 0.014 mPa·s | mass density ([3]; 313.15 K): 794.39 ± 0.15 kg/m3
7 | CCCC[NH3+].O=[N+]([O-])[O-] [n-butylammonium nitrate] | 111.35 ± 4.1 mPa·s | 1104.68 ± 6.6 kg/m3 | 89.95 ± 2.9 mPa·s | 1101.52 ± 6.6 kg/m3 | 73.04 ± 2.1 mPa·s | 1098.38 ± 6.5 kg/m3 | 60.25 ± 1.6 mPa·s | 1095.26 ± 6.5 kg/m3 | 50.12 ± 1.3 mPa·s | 1092.17 ± 6.5 kg/m3 | 1.4458 ± 0.0011 | – | – | – | – | – | – | – | – | – | –
8 | CCCO [propan-1-ol] | 2.208 ± 0.017 mPa·s | 803.56 ± 0.15 kg/m3 | 1.975 ± 0.016 mPa·s | 799.58 ± 0.15 kg/m3 | 1.738 ± 0.014 mPa·s | 795.59 ± 0.15 kg/m3 | 1.549 ± 0.012 mPa·s | 791.48 ± 0.15 kg/m3 | 1.382 ± 0.011 mPa·s | 787.36 ± 0.15 kg/m3 | 1.3833 ± 0.0004 | – | – | – | – | – | – | – | – | – | –
9 | CCCO [propan-1-ol] + CCCC[NH3+].O=[N+]([O-])[O-] | – | – | – | – | – | – | – | – | – | – | – | 2.208 ± 0.017 mPa·s | 803.56 ± 0.14 kg/m3 | 1.975 ± 0.016 mPa·s | 799.58 ± 0.15 kg/m3 | 1.738 ± 0.014 mPa·s | 795.59 ± 0.15 kg/m3 | 1.549 ± 0.012 mPa·s | 791.48 ± 0.15 kg/m3 | 1.382 ± 0.011 mPa·s | mass density ([3]; 313.15 K): 787.36 ± 0.15 kg/m3
